PubChem BioAssay AID1259407 (Chemical Carcinogenesis Research Information System (CCRIS), 2018)
The source made the active and inactive calls. No rule for the calls is given here.

Test system: CCRIS mutagenicity, Ames/micronucleus/aberration tests
Assay: CCRIS mutagenicity studies

Question: Which results are given for FC(F)(Cl)C(F)(F)Cl?
Answer: mutagenic call (Test System: AMES SALMONELLA TYPHIMURIUM, Strain/Indicator: TA98, Metabolic Activation: NONE, Method: GAS EXPOSURE): inactive; negative; mutagenic call (Test System: AMES SALMONELLA TYPHIMURIUM, Strain/Indicator: TA98, Metabolic Activation: RAT LIVER S-9, PHENOBARBITAL AND BETA-NAPHTHOFLAVONE (40%), Method: GAS EXPOSURE): inactive; negative; mutagenic call (Test System: AMES SALMONELLA TYPHIMURIUM, Strain/Indicator: TA100, Metabolic Activation: NONE, Method: GAS EXPOSURE): inactive; negative; mutagenic call (Test System: AMES SALMONELLA TYPHIMURIUM, Strain/Indicator: TA100, Metabolic Activation: RAT LIVER S-9, PHENOBARBITAL AND BETA-NAPHTHOFLAVONE (40%), Method: GAS EXPOSURE): inactive; negative; mutagenic call (Test System: AMES SALMONELLA TYPHIMURIUM, Strain/Indicator: TA1535, Metabolic Activation: NONE, Method: GAS EXPOSURE): inactive; negative; mutagenic call (Test System: AMES SALMONELLA TYPHIMURIUM, Strain/Indicator: TA1535, Metabolic Activation: RAT LIVER S-9, PHENOBARBITAL AND BETA-NAPHTHOFLAVONE (40%), Method: GAS EXPOSURE): inactive; negative; mutagenic call (Test System: AMES SALMONELLA TYPHIMURIUM, Strain/Indicator: TA1537, Metabolic Activation: NONE, Method: GAS EXPOSURE): inactive; negative; mutagenic call (Test System: AMES SALMONELLA TYPHIMURIUM, Strain/Indicator: TA1537, Metabolic Activation: RAT LIVER S-9, PHENOBARBITAL AND BETA-NAPHTHOFLAVONE (40%), Method: GAS EXPOSURE): inactive; negative; mutagenic call (Test System: E.COLI, Strain/Indicator: WP2UVRA, Metabolic Activation: NONE, Method: GAS EXPOSURE): inactive; negative; mutagenic call (Test System: E.COLI, Strain/Indicator: WP2UVRA, Metabolic Activation: RAT LIVER S-9, PHENOBARBITAL AND BETA-NAPHTHOFLAVONE (40%), Method: GAS EXPOSURE): inactive; negative

Question: Which mutagenic call (Test System: AMES SALMONELLA TYPHIMURIUM, Strain/Indicator: TA97A, Metabolic Activation: NONE, Method: STANDARD PLATE) does the source give for COc1cc([C@H]2OC[C@H]3[C@@H]2CO[C@@H]3c2cc(OC)c(OC)c(OC)c2)cc(OC)c1OC here?
Answer: inactive; negative

Question: And the mutagenic call (Test System: AMES SALMONELLA TYPHIMURIUM, Strain/Indicator: TA97A, Metabolic Activation: RAT LIVER S-9 (AROCLOR), Method: STANDARD PLATE)?
Answer: inactive; negative

Question: And the mutagenic call (Test System: AMES SALMONELLA TYPHIMURIUM, Strain/Indicator: TA98, Metabolic Activation: NONE, Method: STANDARD PLATE)?
Answer: inactive; negative

Question: What about the mutagenic call (Test System: AMES SALMONELLA TYPHIMURIUM, Strain/Indicator: TA98, Metabolic Activation: RAT LIVER S-9 (AROCLOR), Method: STANDARD PLATE) of the same compound?
Answer: inactive; negative

Question: And the mutagenic call (Test System: AMES SALMONELLA TYPHIMURIUM, Strain/Indicator: TA100, Metabolic Activation: NONE, Method: STANDARD PLATE)?
Answer: inactive; negative

Question: What about the mutagenic call (Test System: AMES SALMONELLA TYPHIMURIUM, Strain/Indicator: TA100, Metabolic Activation: RAT LIVER S-9 (AROCLOR), Method: STANDARD PLATE) of the same compound?
Answer: inactive; negative

Question: And the mutagenic call (Test System: AMES SALMONELLA TYPHIMURIUM, Strain/Indicator: TA102, Metabolic Activation: NONE, Method: STANDARD PLATE)?
Answer: inactive; negative

Question: And the mutagenic call (Test System: AMES SALMONELLA TYPHIMURIUM, Strain/Indicator: TA102, Metabolic Activation: RAT LIVER S-9 (AROCLOR), Method: STANDARD PLATE)?
Answer: inactive; negative

Question: What about the mutagenic call (Test System: AMES SALMONELLA TYPHIMURIUM, Strain/Indicator: TA1535, Metabolic Activation: NONE, Method: STANDARD PLATE) of the same compound?
Answer: inactive; negative

Question: And the mutagenic call (Test System: AMES SALMONELLA TYPHIMURIUM, Strain/Indicator: TA1535, Metabolic Activation: RAT LIVER S-9 (AROCLOR), Method: STANDARD PLATE)?
Answer: inactive; negative

Question: Which results are given for O=C(O)c1ccccc1Nc1cccc(C(F)(F)F)c1?
Answer: mutagenic call (Test System: AMES SALMONELLA TYPHIMURIUM, Strain/Indicator: TA98, Metabolic Activation: RAT, LIVER, S-9, PCB, Method: STANDARD PLATE): inactive; negative; mutagenic call (Test System: AMES SALMONELLA TYPHIMURIUM, Strain/Indicator: TA100, Metabolic Activation: RAT, LIVER, S-9, PCB, Method: STANDARD PLATE): inactive; negative; mutagenic call (Test System: AMES SALMONELLA TYPHIMURIUM, Strain/Indicator: TA1537, Metabolic Activation: RAT, LIVER, S-9, PCB, Method: STANDARD PLATE): inactive; negative; mutagenic call (Test System: AMES SALMONELLA TYPHIMURIUM, Strain/Indicator: TA1538, Metabolic Activation: RAT, LIVER, S-9, PCB, Method: STANDARD PLATE): inactive; negative; mutagenic call (Test System: E. COLI, Strain/Indicator: WP2 UVRA, Metabolic Activation: RAT, LIVER, S-9, PCB, Method: STANDARD PLATE): inactive; negative

Question: Which mutagenic call (Test System: AMES SALMONELLA TYPHIMURIUM, Strain/Indicator: TA97, Metabolic Activation: HAMSTER, LIVER, S-9, AROCLOR 1254 (10%), Method: PREINCUBATION) does the source give for CCCCC(CC)COCC1CO1 (configuration not stated) here?
Answer: inactive; negative

Question: And the mutagenic call (Test System: AMES SALMONELLA TYPHIMURIUM, Strain/Indicator: TA97, Metabolic Activation: NONE, Method: PREINCUBATION)?
Answer: inactive; negative

Question: What about the mutagenic call (Test System: AMES SALMONELLA TYPHIMURIUM, Strain/Indicator: TA97, Metabolic Activation: RAT, LIVER, S-9, AROCLOR 1254 (10%), Method: PREINCUBATION) of the same compound?
Answer: inactive; negative

Question: What about the mutagenic call (Test System: AMES SALMONELLA TYPHIMURIUM, Strain/Indicator: TA98, Metabolic Activation: HAMSTER, LIVER, S-9, AROCLOR 1254 (10%), Method: PREINCUBATION) of the same compound?
Answer: inactive; negative

Question: And the mutagenic call (Test System: AMES SALMONELLA TYPHIMURIUM, Strain/Indicator: TA98, Metabolic Activation: NONE, Method: PREINCUBATION)?
Answer: inactive; negative

Question: And the mutagenic call (Test System: AMES SALMONELLA TYPHIMURIUM, Strain/Indicator: TA98, Metabolic Activation: RAT, LIVER, S-9, AROCLOR 1254 (10%), Method: PREINCUBATION)?
Answer: inactive; negative

Question: What about the mutagenic call (Test System: AMES SALMONELLA TYPHIMURIUM, Strain/Indicator: TA100, Metabolic Activation: HAMSTER, LIVER, S-9, AROCLOR 1254 (10%), Method: PREINCUBATION) of the same compound?
Answer: inactive; negative

Question: And the mutagenic call (Test System: AMES SALMONELLA TYPHIMURIUM, Strain/Indicator: TA100, Metabolic Activation: NONE, Method: PREINCUBATION)?
Answer: inactive; negative

Question: And the mutagenic call (Test System: AMES SALMONELLA TYPHIMURIUM, Strain/Indicator: TA100, Metabolic Activation: RAT, LIVER, S-9, AROCLOR 1254 (5 OR 30%), Method: PREINCUBATION)?
Answer: inactive; negative

Question: And the mutagenic call (Test System: AMES SALMONELLA TYPHIMURIUM, Strain/Indicator: TA100, Metabolic Activation: RAT, LIVER, S-9, AROCLOR 1254 (30%), Method: PREINCUBATION)?
Answer: inactive; negative

Question: And the mutagenic call (Test System: AMES SALMONELLA TYPHIMURIUM, Strain/Indicator: TA1535, Metabolic Activation: HAMSTER, LIVER, S-9, AROCLOR 1254 (10%), Method: PREINCUBATION)?
Answer: inactive; negative

Question: What about the mutagenic call (Test System: AMES SALMONELLA TYPHIMURIUM, Strain/Indicator: TA1535, Metabolic Activation: NONE, Method: PREINCUBATION) of the same compound?
Answer: inactive; negative

Question: And the mutagenic call (Test System: AMES SALMONELLA TYPHIMURIUM, Strain/Indicator: TA1535, Metabolic Activation: RAT, LIVER, S-9, AROCLOR 1254 (5% & 10%), Method: PREINCUBATION)?
Answer: active; positive

Question: What about the mutagenic call (Test System: AMES SALMONELLA TYPHIMURIUM, Strain/Indicator: TA1535, Metabolic Activation: RAT, LIVER, S-9, AROCLOR 1254 (5 OR 10%), Method: PREINCUBATION) of the same compound?
Answer: active; positive

Question: And the mutagenic call (Test System: AMES SALMONELLA TYPHIMURIUM, Strain/Indicator: TA1535, Metabolic Activation: RAT, LIVER, S-9, AROCLOR 1254 (30%), Method: PREINCUBATION)?
Answer: inactive; negative

Question: O[C@H]1C=CC2=C(c3cccc4cccc2c34)[C@@H]1O was tested. Which mutagenic call (Test System: AMES SALMONELLA TYPHIMURIUM, Strain/Indicator: TM677, Metabolic Activation: NONE, Method: PREINCUBATION) did it give?
Answer: active; positive

Question: What about the mutagenic call (Test System: AMES SALMONELLA TYPHIMURIUM, Strain/Indicator: TM677, Metabolic Activation: RAT, LIVER, POSTMITOCHONDRIAL SUPERNATANT, AROCLOR 1254, Method: PREINCUBATION) of the same compound?
Answer: active; positive
